Test results taken from patent US12544395B2, “Combination compositions comprising a beta-lactamase inhibitor and uses thereof” (priority 2018, dated 2026).

How the values were obtained:
K. pneumoniae 11/23 LF#2 = test: microbe, parasite or virus in culture; format: cell-based
[1] = tested on: E. coli expressing TEM-1+CTX-M-15, CTX-M-15, and KPC-2+SHV-12; test: Murine ascending UTI model, three strains; format: in vivo, mice; settings: added to ceftibuten at 3, 10, 30, 100, and 300 mg/kg, SC every 12 hours for 3 days
K. pneumoniae 3151 = test: Broth microdilution MIC (strain enzymes: SHV-12, TEM-1); format: cell-based
E. coli SI-LP377 = test: microbe, parasite or virus in culture; format: cell-based
K. pneumoniae KI (KCl) = test: Broth microdilution MIC (strain enzymes: TEM-10); format: cell-based
E. coli Si-FDL-GES = test: microbe, parasite or virus in culture; format: cell-based

CCC(=O)N[C@H]1Cc2cccc(C(=O)O)c2OB1O [Compound 2, (R)-2-hydroxy-3-propionamido-3,4-dihydro-2H-benzo[e][1,2]oxaborinine-8-carboxylic acid]
MIC of ceftibuten (CTB) (K. pneumoniae 11/23 LF#2; with inhibitor at 1 μg/mL): 0.25 µg/mL | MIC of cefalexin (LEX) (K. pneumoniae 11/23 LF#2; with inhibitor at 2 μg/mL): 0.5 µg/mL | MIC of cefdinir (CDR) (K. pneumoniae 11/23 LF#2; with inhibitor at 2 μg/mL): 0.5 µg/mL | MIC of cefixime (CFM) (K. pneumoniae 11/23 LF#2; with inhibitor at 2 μg/mL): 2 µg/mL | MIC of ceftibuten (CTB) (K. pneumoniae 11/23 LF#2; with inhibitor at 2 μg/mL): 0.25 µg/mL | MIC of cefalexin (LEX) (K. pneumoniae 11/23 LF#2; with inhibitor at 4 μg/mL): 0.25 µg/mL | MIC of cefdinir (CDR) (K. pneumoniae 11/23 LF#2; with inhibitor at 4 μg/mL): 0.25 µg/mL | MIC of cefixime (CFM) (K. pneumoniae 11/23 LF#2; with inhibitor at 4 μg/mL): 1 µg/mL | MIC of ceftibuten (CTB) (K. pneumoniae 11/23 LF#2; with inhibitor at 4 μg/mL): 0.125 µg/mL | bacterial titers lower than ceftibuten alone, bladders [1]: 3.2 log10 CFU/g | bacterial titers lower than ceftibuten alone, urine [1]: up to 4 log10 CFU/mL | MIC of cefalexin (LEX) (K. pneumoniae 3151; with inhibitor at 1 μg/mL): 2 µg/mL | MIC of cefdinir (CDR) (K. pneumoniae 3151; with inhibitor at 1 μg/mL): 2 µg/mL | MIC of cefixime (CFM) (K. pneumoniae 3151; with inhibitor at 1 μg/mL): 16 µg/mL | MIC of ceftibuten (CTB) (K. pneumoniae 3151; with inhibitor at 1 μg/mL): 1 µg/mL | MIC of cefalexin (LEX) (K. pneumoniae 3151; with inhibitor at 2 μg/mL): 1 µg/mL | MIC of cefdinir (CDR) (K. pneumoniae 3151; with inhibitor at 2 μg/mL): 1 µg/mL | MIC of cefixime (CFM) (K. pneumoniae 3151; with inhibitor at 2 μg/mL): 8 µg/mL | MIC of ceftibuten (CTB) (K. pneumoniae 3151; with inhibitor at 2 μg/mL): 0.25 µg/mL | MIC of cefalexin (LEX) (K. pneumoniae 3151; with inhibitor at 4 μg/mL): 0.5 µg/mL | MIC of cefdinir (CDR) (K. pneumoniae 3151; with inhibitor at 4 μg/mL): 0.5 µg/mL | MIC of cefixime (CFM) (K. pneumoniae 3151; with inhibitor at 4 μg/mL): 2 µg/mL | MIC of ceftibuten (CTB) (K. pneumoniae 3151; with inhibitor at 4 μg/mL): 0.25 µg/mL | MIC of cefalexin (LEX) (E. coli SI-LP377; with inhibitor at 1 μg/mL): 4 µg/mL | MIC of cefdinir (CDR) (E. coli SI-LP377; with inhibitor at 1 μg/mL): 4 µg/mL | MIC of cefixime (CFM) (E. coli SI-LP377; with inhibitor at 1 μg/mL): 0.5 µg/mL | MIC of ceftibuten (CTB) (E. coli SI-LP377; with inhibitor at 1 μg/mL): 0.125 µg/mL | MIC of cefalexin (LEX) (E. coli SI-LP377; with inhibitor at 2 μg/mL): 1 µg/mL | MIC of cefdinir (CDR) (E. coli SI-LP377; with inhibitor at 2 μg/mL): 1 µg/mL | MIC of cefixime (CFM) (E. coli SI-LP377; with inhibitor at 2 μg/mL): 0.25 µg/mL | MIC of ceftibuten (CTB) (E. coli SI-LP377; with inhibitor at 2 μg/mL): 0.125 µg/mL | MIC of cefalexin (LEX) (E. coli SI-LP377; with inhibitor at 4 μg/mL): 1 µg/mL | MIC of cefdinir (CDR) (E. coli SI-LP377; with inhibitor at 4 μg/mL): 1 µg/mL | MIC of cefixime (CFM) (E. coli SI-LP377; with inhibitor at 4 μg/mL): 0.125 µg/mL | MIC of ceftibuten (CTB) (E. coli SI-LP377; with inhibitor at 4 μg/mL): 0.125 µg/mL | MIC of cefalexin (LEX) (K. pneumoniae KI (KCl); with inhibitor at 1 μg/mL): 0.125 µg/mL | MIC of cefdinir (CDR) (K. pneumoniae KI (KCl); with inhibitor at 1 μg/mL): 0.125 µg/mL | MIC of cefixime (CFM) (K. pneumoniae KI (KCl); with inhibitor at 1 μg/mL): 1 µg/mL | MIC of ceftibuten (CTB) (K. pneumoniae KI (KCl); with inhibitor at 1 μg/mL): 0.125 µg/mL | MIC of cefalexin (LEX) (K. pneumoniae KI (KCl); with inhibitor at 2 μg/mL): 0.125 µg/mL | MIC of cefdinir (CDR) (K. pneumoniae KI (KCl); with inhibitor at 2 μg/mL): 0.125 µg/mL | MIC of cefixime (CFM) (K. pneumoniae KI (KCl); with inhibitor at 2 μg/mL): 1 µg/mL | MIC of ceftibuten (CTB) (K. pneumoniae KI (KCl); with inhibitor at 2 μg/mL): 0.06 µg/mL | MIC of cefalexin (LEX) (K. pneumoniae KI (KCl); with inhibitor at 4 μg/mL): 0.125 µg/mL | MIC of cefdinir (CDR) (K. pneumoniae KI (KCl); with inhibitor at 4 μg/mL): 0.125 µg/mL | MIC of cefixime (CFM) (K. pneumoniae KI (KCl); with inhibitor at 4 μg/mL): 0.25 µg/mL | MIC of ceftibuten (CTB) (K. pneumoniae KI (KCl); with inhibitor at 4 μg/mL): 0.125 µg/mL | MIC of cefalexin (LEX) (E. coli Si-FDL-GES; with inhibitor at 1 μg/mL): 0.5 µg/mL | MIC of cefdinir (CDR) (E. coli Si-FDL-GES; with inhibitor at 1 μg/mL): 0.5 µg/mL | MIC of cefixime (CFM) (E. coli Si-FDL-GES; with inhibitor at 1 μg/mL): 0.25 µg/mL | MIC of ceftibuten (CTB) (E. coli Si-FDL-GES; with inhibitor at 1 μg/mL): 0.125 µg/mL | MIC of cefalexin (LEX) (E. coli Si-FDL-GES; with inhibitor at 2 μg/mL): 0.5 µg/mL | MIC of cefdinir (CDR) (E. coli Si-FDL-GES; with inhibitor at 2 μg/mL): 0.5 µg/mL | MIC of cefixime (CFM) (E. coli Si-FDL-GES; with inhibitor at 2 μg/mL): 0.125 µg/mL | MIC of ceftibuten (CTB) (E. coli Si-FDL-GES; with inhibitor at 2 μg/mL): 0.125 µg/mL | MIC of cefalexin (LEX) (E. coli Si-FDL-GES; with inhibitor at 4 μg/mL): 0.5 µg/mL | MIC of cefdinir (CDR) (E. coli Si-FDL-GES; with inhibitor at 4 μg/mL): 0.5 µg/mL | MIC of cefixime (CFM) (E. coli Si-FDL-GES; with inhibitor at 4 μg/mL): 0.125 µg/mL | MIC of ceftibuten (CTB) (E. coli Si-FDL-GES; with inhibitor at 4 μg/mL): 0.125 µg/mL
